The nature of data set [1]: Activity assay with NBD-Gb3 in PBS pH 7.4 (HP-TLC). It counts as biochemical. As for the experimental part:
a-Gals: prh-alpha galactosidase, GCB a-Gal (endogenous green coffee bean).
80 μl PBS (sigma), pH=7.4
10 μl of NBD-Gb3 0.1 μg/ul in Ethanol [10 ug/ml in reaction]
10 μl of a-Gal 1 mg/ml [100 μg/ml in reaction]
Incubated for 60 min in 37° C.
150 μl chloroform: methanol (2:1) were added followed by vortex the lower phase pulled out speed-vac was effected to complete evaporation and the pellet dissolved in 50 μl Chloroform: methanol [1:1] All samples were injected on HP-TLC silica-60 plate [40 ul ]
Chloroform: methanol: H2O [100:42:6].

A short description of data set [2]: In vitro hydrolysis of Gb3-NBD by alpha galactosidases from different sources under various pH conditions (TLC). It counts as biochemical. The following applies: phosphate buffer pH 6.5, 60 min 37° C., a-Gal 50 ug/ml. Here is the method: Green Coffee Bean-GCB a-Gal (Sigma #G8507)
Plant recombinant human alpha galactosidase was produced as described in WO2008/132743 (alpha-Gal-KDEL).
Commercial recombinant human alpha galactosidase (Replagal, Shire)
The following protocol was used for NBD-Gb3 hydrolysis:
90 μl activity buffer [citrate phosphate pH=4.6; phosphate buffer pH=6.5
10 μl of NBD-Gb3 0.35 ug/ul in Ethanol [35 ug/ml in reaction]
5 μl of a-Gal 1 mg/ml [50 ug/ml in reaction]
Incubation for 60 min in 37° C.
100 μl chloroform were added followed by vortex
50 μl methanol were added followed by vortex
Injection on TLC silica-60 plate, Chloroform: methanol: H2O [100:42:6] as mobile phase.

The nature of data set [3]: Biodistribution of fluorescent Gb3 in WT and Fabry mice. It counts as in vivo. The text has this: For testing the hypothesis that circulating Gb3 can reach and accumulate in organs, organ uptake and biodistribution of fluorescent Gb3 (N-Dodecanoyl-NBD-ceramide trihexoside) in wild type (WT) and Fabry mice were effected.
Animals: Mice: Fabry mice and WT mice
Group Size: total 12 male mice, n=2
Materials: fluorescent Gb3 (N-Dodecanoyl-NBD-ceramide trihexoside; Catalog #: 1631, Matreya Pa. 16823 USA
Jackson B6J129Gla α-galactosidase-A-deficient mice (“Fabry mice”) were purchased from Jackson Laboratories. These mice are characterized by being totally deficient in α-Galactosidase-A activity and progressively accumulate Gb3 in both plasma and in the lysosomes of most tissues (in particular, the liver, spleen, heart, skin, and kidneys). In addition, these mice have no clinical disease phenotype and survive a normal laboratory life span (>2 years). Hemizygous affected males were bred to homozygous affected females, thereby providing only affected offspring. For these studies, all mice were affected adult males 12 to 30 weeks of age at study initiation.
Administration: IV injection, tail vein.
Gb3-NBD was injected to wild type and Fabry mice. Blood was collected 1 hour and 24 hours following injection and plasma was prepared using accepted methods. Gb3-NBD levels were determined using Fluorescent Elisa reader (Infinite M200; Tecan, Switzerland), subtracting basal fluorescent levels plasma of control mice injected with saline.
Gb3 presence was also detected with HP TLC (CAMAG, Switzerland)
Organs (liver, kidney heart and spleen) were collected from the mice of the experiment described above, and Gb3-NBD levels were determined by fluorescence detector and HPTLC as described. As the experiment was initial, low levels of Injected Gb3 NBD were given.

The conditions of data set [4]: clinical studies; cited from earlier work.

With “Green coffee bean alpha gal: Endogenous green coffee bean alpha galactosidase (Sigma #G8507)”, the “Activity compared with plant recombinant human alpha Gal (upshift of band)” value in data set [1] (PBS pH 7.4) is given as “works better”. Moreover, the “Enzymatic activity on NBD-Gb3 under neutral to basic pH” value in data set [1] (PBS pH 7.4, 60 min 37° C., a-Gal 100 μg/ml, HP-TLC) is reported as “demonstrate enzymatic activity”. Moreover, the “Activity under alkaline pH compared with the acidic conditions of FIG. 3” value in data set [1] (pH 7.4 vs acidic conditions of FIG. 3) is recorded as “more active under alkaline pH conditions”. Further, in data set [2], the “Hydrolysis of Gb3-NBD to lactosylceramide-NBD” value is “can hydrolyze NBD-Gb3”.

For the molecule “N-Dodecanoyl-NBD-ceramide trihexoside [Gb3-NBD]”, in data set [3] (24 hours following iv injection, 320 ug/kg, WT and Fabry mice), the “Gb3-NBD levels in plasma (fluorescence)” value is “fluorescence only in Fabry mice”. The “Gb3-NBD fluorescent levels in plasma and organs (liver, kidney, heart, spleen)” value in data set [3] (iv 320 ug/kg, fluorescence detector) is “only detectable in Plasma (FIG. 5) and Liver”. Also, the “Gb3-NBD bands in organs by HPTLC” value in data set [3] (iv 320 ug/kg, inconclusive due to high background) is listed as “only in Fabry mice”.

B1: Replagal: Commercial recombinant human alpha galactosidase (Replagal, Shire) (protein, UniProt P06280 32-429, looked up)
Alpha-galactosidase A: LDNGLARTPTMGWLHWERFMCNLDCQEEPDSCISEKLFMEMAELMVSEGWKDAGYEYLCIDDCWMAPQRDSEGRLQADPQRFPHGIRQLANYVHSKGLKLGIYADVGNKTCAGFPGSFGYYDIDAQTFADWGVDLLKFDGCYCDSLENLADGYKHMSLALNRTGRSIVYSCEWPLYMWPFQKPNYTEIRQYCNHWRNFADIDDSWKSIKSILDWTSFNQERIVDVAGPGGWNDPDMLVIGNFGLSWNQQVTQMALWAIMAAPLFMSNDLRHISPQAKALLQDKDVIAINQDPLGKQGYQLRQGDNFEVWERPLSGLAWAVAMINRQEIGGPRSYTIAVASLGKGVACNPACFITQLLPVKRKLGFYEWTSRLRSHINPTGTVLLQLENTMQMSLKDLL
modifications: agalsidase alfa
As to B1, the “Hydrolysis of Gb3-NBD to lactosylceramide-NBD” value in data set [2] was “can partially hydrolyze Gb3”. Also, in data set [4], the “Clearance of Gb3 from plasma, kidney cells, capillary endothelial cells of heart and skin” value is “proven efficacious”.

B2: Fabrazyme: Recombinant form of human α-galactosidase A (agalsidase beta, Genzyme) (protein, UniProt P06280 32-429, looked up)
Alpha-galactosidase A: LDNGLARTPTMGWLHWERFMCNLDCQEEPDSCISEKLFMEMAELMVSEGWKDAGYEYLCIDDCWMAPQRDSEGRLQADPQRFPHGIRQLANYVHSKGLKLGIYADVGNKTCAGFPGSFGYYDIDAQTFADWGVDLLKFDGCYCDSLENLADGYKHMSLALNRTGRSIVYSCEWPLYMWPFQKPNYTEIRQYCNHWRNFADIDDSWKSIKSILDWTSFNQERIVDVAGPGGWNDPDMLVIGNFGLSWNQQVTQMALWAIMAAPLFMSNDLRHISPQAKALLQDKDVIAINQDPLGKQGYQLRQGDNFEVWERPLSGLAWAVAMINRQEIGGPRSYTIAVASLGKGVACNPACFITQLLPVKRKLGFYEWTSRLRSHINPTGTVLLQLENTMQMSLKDLL
modifications: agalsidase beta
In the case of B2, the “Clearance of Gb3 from plasma, kidney cells, capillary endothelial cells of heart and skin” value in data set [4] is reported as “proven efficacious”.

The values above are taken from patent publication US20120230974A1, “ALKALINE ALPHA GALACTOSIDASE FOR THE TREATMENT OF FABRY DISEASE” (PROTALIX LTD, priority 2009, published 2012).
